{"source": "patent US11542240B2", "about": "“STK19 inhibitors for treatment of cancer” (TRUSTEES OF BOSTON UNIVERSITY, priority 2018, dated 2023)", "experiment_in_all_cases": "biochemical", "type_in_all_cases": "binding", "key": {"[1]": {"molecular_target": "panel of 468 diverse kinases (Homo sapiens, UniProt P80192)", "details": "MLK1; 1000 nM; read-out: Percent Control"}, "[2]": {"molecular_target": "panel of 468 diverse kinases (Homo sapiens, UniProt Q9HC98)", "details": "NEK6; 1000 nM; read-out: Percent Control"}, "[3]": {"molecular_target": "panel of 468 diverse kinases (Homo sapiens, UniProt P00519, F317I)", "details": "1000 nM, read-out: Percent Control"}, "[4]": {"molecular_target": "panel of 468 diverse kinases (Homo sapiens, UniProt P35626)", "details": "GRK3; 1000 nM; read-out: Percent Control"}, "[5]": {"molecular_target": "panel of 468 diverse kinases (Homo sapiens, UniProt P0C1S8)", "details": "WEE2; 1000 nM; read-out: Percent Control"}, "[6]": {"molecular_target": "panel of 468 diverse kinases (Homo sapiens, UniProt P10721, D816V)", "sequence (P10721 26-976 D816V limits assumed)": "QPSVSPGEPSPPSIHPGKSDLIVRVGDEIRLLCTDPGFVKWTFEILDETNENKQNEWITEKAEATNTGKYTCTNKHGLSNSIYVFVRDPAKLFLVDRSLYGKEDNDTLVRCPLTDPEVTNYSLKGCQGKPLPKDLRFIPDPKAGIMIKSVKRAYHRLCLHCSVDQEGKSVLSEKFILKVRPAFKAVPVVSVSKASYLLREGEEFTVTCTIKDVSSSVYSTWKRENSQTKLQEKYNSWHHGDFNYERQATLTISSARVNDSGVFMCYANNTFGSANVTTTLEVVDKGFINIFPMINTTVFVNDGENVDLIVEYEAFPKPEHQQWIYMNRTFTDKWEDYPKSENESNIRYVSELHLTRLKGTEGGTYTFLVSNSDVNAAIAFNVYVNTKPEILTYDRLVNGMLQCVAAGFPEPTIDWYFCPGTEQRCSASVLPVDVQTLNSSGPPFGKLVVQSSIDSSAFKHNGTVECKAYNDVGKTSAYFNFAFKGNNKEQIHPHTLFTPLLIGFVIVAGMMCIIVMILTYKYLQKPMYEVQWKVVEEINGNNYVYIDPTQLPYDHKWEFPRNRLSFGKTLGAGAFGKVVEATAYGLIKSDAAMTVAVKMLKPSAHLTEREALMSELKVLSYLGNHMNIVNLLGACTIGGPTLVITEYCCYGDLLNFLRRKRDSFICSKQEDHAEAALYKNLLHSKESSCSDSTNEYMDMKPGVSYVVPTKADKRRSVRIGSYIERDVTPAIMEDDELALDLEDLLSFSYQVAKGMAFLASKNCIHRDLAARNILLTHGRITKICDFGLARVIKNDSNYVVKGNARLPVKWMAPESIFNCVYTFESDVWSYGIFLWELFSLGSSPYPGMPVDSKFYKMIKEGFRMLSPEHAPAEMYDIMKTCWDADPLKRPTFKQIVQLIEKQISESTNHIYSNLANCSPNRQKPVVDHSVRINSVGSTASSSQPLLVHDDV", "details": "KIT(D816V); 1000 nM; read-out: Percent Control"}, "[7]": {"molecular_target": "panel of 468 diverse kinases (Homo sapiens, UniProt Q13557)", "sequence (Q13557 2-499 limits assumed)": "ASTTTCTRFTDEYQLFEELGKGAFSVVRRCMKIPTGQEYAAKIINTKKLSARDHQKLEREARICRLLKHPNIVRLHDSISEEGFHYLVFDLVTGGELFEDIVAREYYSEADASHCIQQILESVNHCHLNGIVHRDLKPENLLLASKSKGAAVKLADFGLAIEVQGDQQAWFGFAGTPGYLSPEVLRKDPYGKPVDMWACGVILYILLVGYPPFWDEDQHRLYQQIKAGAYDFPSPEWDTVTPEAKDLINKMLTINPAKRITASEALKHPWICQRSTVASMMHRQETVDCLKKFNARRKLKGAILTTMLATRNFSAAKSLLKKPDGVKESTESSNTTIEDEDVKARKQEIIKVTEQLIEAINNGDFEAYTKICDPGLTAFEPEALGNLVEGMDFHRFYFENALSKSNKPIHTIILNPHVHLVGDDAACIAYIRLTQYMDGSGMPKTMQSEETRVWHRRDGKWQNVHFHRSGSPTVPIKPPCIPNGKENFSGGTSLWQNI", "details": "CAMK2D; 1000 nM; read-out: Percent Control"}, "[8]": {"molecular_target": "panel of 468 diverse kinases (Homo sapiens, UniProt Q9BYP7)", "details": "WNK3; 1000 nM; read-out: Percent Control"}, "[9]": {"molecular_target": "panel of 468 diverse kinases (Homo sapiens, UniProt Q9NWZ3)", "details": "IRAK4; 1000 nM; read-out: Percent Control"}, "[10]": {"molecular_target": "panel of 468 diverse kinases (Homo sapiens, UniProt P10721, V559D)", "sequence (P10721 26-976 V559D limits assumed)": "as the sequence (P10721 26-976 D816V limits assumed) above, with V534D, V791D counted along it", "details": "KIT(V559D); 1000 nM; read-out: Percent Control"}, "[11]": {"molecular_target": "panel of 468 diverse kinases (Homo sapiens, UniProt Q8TF76)", "details": "HASPIN; 1000 nM; read-out: Percent Control"}, "[12]": {"molecular_target": "panel of 468 diverse kinases (Homo sapiens, UniProt Q8IWQ3)", "details": "BRSK2; 1000 nM; read-out: Percent Control"}, "[13]": {"molecular_target": "panel of 468 diverse kinases (Homo sapiens, UniProt P57058)", "details": "HUNK; 1000 nM; read-out: Percent Control"}, "[14]": {"molecular_target": "panel of 468 diverse kinases (Homo sapiens, UniProt Q2M2I8)", "details": "AAK1; 1000 nM; read-out: Percent Control"}, "[15]": {"molecular_target": "panel of 468 diverse kinases (Homo sapiens, UniProt O43683)", "details": "BUB1; 1000 nM; read-out: Percent Control"}, "[16]": {"molecular_target": "panel of 468 diverse kinases (Homo sapiens, UniProt P43405)", "details": "SYK; 1000 nM; read-out: Percent Control"}, "[17]": {"molecular_target": "panel of 468 diverse kinases (Homo sapiens, UniProt P00533)", "details": "EGFR; 1000 nM; read-out: Percent Control"}, "[18]": {"molecular_target": "panel of 468 diverse kinases (Homo sapiens, UniProt Q8IY84)", "details": "NIM1; 1000 nM; read-out: Percent Control"}, "[19]": {"molecular_target": "panel of 468 diverse kinases (Homo sapiens, UniProt O14757)", "details": "CHEK1; 1000 nM; read-out: Percent Control"}, "[20]": {"molecular_target": "panel of 468 diverse kinases (Homo sapiens, UniProt Q9UM73, C1156Y)", "details": "ALK(C1156Y); 1000 nM; read-out: Percent Control"}, "[21]": {"molecular_target": "panel of 468 diverse kinases (Homo sapiens, UniProt P11802)", "sequence (P11802 2-303 limits assumed)": "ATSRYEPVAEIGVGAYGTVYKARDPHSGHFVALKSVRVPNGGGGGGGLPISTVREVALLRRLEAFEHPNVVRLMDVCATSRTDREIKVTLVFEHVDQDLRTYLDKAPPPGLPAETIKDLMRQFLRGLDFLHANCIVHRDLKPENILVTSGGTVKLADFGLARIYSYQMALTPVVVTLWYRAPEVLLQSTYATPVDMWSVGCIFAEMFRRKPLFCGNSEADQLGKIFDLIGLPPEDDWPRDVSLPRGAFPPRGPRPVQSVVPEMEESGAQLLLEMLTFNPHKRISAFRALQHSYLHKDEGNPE", "details": "1000 nM, read-out: Percent Control"}, "[22]": {"molecular_target": "panel of 468 diverse kinases (Homo sapiens, UniProt P42345)", "details": "MTOR; 1000 nM; read-out: Percent Control"}, "[23]": {"molecular_target": "panel of 468 diverse kinases (Homo sapiens, UniProt P51451)", "sequence (P51451 2-505 limits assumed)": "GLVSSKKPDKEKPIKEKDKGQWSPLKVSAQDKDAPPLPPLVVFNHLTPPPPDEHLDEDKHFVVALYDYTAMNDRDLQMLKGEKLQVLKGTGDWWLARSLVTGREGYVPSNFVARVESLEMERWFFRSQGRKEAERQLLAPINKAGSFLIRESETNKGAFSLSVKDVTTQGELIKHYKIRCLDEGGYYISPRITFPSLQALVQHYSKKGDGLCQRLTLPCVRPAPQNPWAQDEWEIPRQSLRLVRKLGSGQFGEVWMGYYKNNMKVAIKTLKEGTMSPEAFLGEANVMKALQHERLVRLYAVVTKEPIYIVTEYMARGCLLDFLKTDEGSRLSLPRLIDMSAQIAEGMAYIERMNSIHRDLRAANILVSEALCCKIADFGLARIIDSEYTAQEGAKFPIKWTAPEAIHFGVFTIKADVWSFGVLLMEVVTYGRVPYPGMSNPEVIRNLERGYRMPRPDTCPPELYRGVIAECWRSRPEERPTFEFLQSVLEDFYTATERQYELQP", "details": "BLK; 1000 nM; read-out: Percent Control"}, "[24]": {"molecular_target": "panel of 468 diverse kinases (Homo sapiens, UniProt Q7KZI7)", "details": "MARK2; 1000 nM; read-out: Percent Control"}, "[25]": {"molecular_target": "panel of 468 diverse kinases (Homo sapiens, UniProt Q16539)", "sequence (Q16539 2-360 limits assumed)": "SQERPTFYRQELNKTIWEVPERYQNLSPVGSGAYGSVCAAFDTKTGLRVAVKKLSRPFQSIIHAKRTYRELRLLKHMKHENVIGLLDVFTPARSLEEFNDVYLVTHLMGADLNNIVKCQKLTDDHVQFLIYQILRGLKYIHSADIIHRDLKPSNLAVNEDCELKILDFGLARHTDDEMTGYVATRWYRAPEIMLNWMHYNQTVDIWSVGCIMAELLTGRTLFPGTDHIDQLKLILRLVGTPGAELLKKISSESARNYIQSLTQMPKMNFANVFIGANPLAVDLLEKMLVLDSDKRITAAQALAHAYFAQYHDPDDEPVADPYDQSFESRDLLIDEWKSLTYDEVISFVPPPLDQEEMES", "details": "p38-alpha; 1000 nM; read-out: Percent Control"}, "[26]": {"molecular_target": "panel of 468 diverse kinases (Homo sapiens, UniProt P24723)", "details": "PRKCH; 1000 nM; read-out: Percent Control"}, "[27]": {"molecular_target": "panel of 468 diverse kinases (Homo sapiens, UniProt Q6P3R8)", "details": "NEK5; 1000 nM; read-out: Percent Control"}, "[28]": {"molecular_target": "panel of 468 diverse kinases (Homo sapiens, UniProt P45984)", "details": "JNK2; 1000 nM; read-out: Percent Control"}, "[29]": {"molecular_target": "panel of 468 diverse kinases (Homo sapiens, UniProt Q13976)", "sequence (Q13976 2-671 limits assumed)": "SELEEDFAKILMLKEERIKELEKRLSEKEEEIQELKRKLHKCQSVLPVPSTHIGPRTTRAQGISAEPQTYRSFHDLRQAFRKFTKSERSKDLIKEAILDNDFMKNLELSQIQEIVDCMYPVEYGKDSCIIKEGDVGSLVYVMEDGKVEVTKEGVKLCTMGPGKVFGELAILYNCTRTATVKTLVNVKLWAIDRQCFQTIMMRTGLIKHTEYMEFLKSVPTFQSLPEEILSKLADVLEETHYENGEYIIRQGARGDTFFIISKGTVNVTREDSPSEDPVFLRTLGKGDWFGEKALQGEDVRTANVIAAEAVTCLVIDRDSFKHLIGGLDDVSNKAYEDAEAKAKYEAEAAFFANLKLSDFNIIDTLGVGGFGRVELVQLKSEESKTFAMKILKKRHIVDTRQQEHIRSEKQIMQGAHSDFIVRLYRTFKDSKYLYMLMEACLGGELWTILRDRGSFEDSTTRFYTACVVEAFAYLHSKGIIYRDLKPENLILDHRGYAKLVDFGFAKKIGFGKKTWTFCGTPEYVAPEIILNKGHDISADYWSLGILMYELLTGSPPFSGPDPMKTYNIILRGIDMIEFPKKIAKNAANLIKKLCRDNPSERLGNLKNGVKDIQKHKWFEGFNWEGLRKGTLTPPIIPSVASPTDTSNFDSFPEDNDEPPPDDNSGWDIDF", "details": "PRKG1; 1000 nM; read-out: Percent Control"}, "[30]": {"molecular_target": "panel of 468 diverse kinases (Homo sapiens, UniProt Q9P1W9)", "details": "PIM2; 1000 nM; read-out: Percent Control"}, "[31]": {"molecular_target": "panel of 468 diverse kinases (Homo sapiens, UniProt O75460)", "sequence (O75460 19-977 limits assumed)": "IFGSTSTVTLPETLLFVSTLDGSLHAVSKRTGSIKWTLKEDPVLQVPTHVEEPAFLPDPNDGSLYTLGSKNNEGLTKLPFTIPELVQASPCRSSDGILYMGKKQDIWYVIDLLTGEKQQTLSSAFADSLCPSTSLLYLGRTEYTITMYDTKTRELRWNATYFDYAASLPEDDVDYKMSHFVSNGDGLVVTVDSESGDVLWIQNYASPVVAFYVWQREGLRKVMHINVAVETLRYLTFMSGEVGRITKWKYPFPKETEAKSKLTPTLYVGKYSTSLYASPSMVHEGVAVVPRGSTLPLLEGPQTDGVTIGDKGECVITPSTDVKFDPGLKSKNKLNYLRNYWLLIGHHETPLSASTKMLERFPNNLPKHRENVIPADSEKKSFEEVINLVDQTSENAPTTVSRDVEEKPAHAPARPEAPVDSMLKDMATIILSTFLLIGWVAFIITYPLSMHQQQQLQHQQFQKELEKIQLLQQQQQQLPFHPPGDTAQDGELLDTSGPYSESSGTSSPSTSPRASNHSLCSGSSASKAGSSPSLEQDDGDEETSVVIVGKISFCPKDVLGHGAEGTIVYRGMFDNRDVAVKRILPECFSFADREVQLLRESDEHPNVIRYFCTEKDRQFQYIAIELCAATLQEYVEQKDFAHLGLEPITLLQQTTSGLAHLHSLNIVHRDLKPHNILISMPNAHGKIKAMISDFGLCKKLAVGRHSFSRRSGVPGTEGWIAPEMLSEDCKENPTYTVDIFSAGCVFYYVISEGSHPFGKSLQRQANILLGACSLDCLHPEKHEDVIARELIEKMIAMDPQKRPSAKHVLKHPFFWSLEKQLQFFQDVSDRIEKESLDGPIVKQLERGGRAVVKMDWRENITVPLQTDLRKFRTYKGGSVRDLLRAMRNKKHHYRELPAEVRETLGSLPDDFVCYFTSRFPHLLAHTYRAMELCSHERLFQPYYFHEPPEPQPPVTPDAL", "details": "ERN1; 1000 nM; read-out: Percent Control"}}, "note": "Read-outs that look alike come from different tables or passages of the source.", "data": [{"smiles": "COc1cc2nc(NC3CC3)nc(NC3CCN(C(C)C)CC3)c2cc1OC", "note": "[Formula IV]", "values": [{"measurement": "remaining activity at 1 µM", "setting": "[1]", "result": 98, "unit": "%"}, {"measurement": "remaining activity at 1 µM", "setting": "[2]", "result": 83, "unit": "%"}, {"measurement": "remaining activity at 1 µM", "setting": "[3]; ABL1(F317I)-nonphosphorylated", "result": 85, "unit": "%"}, {"measurement": "remaining activity at 1 µM", "setting": "[3]; ABL1(F317I)-pho sphorylated", "result": 90, "unit": "%"}, {"measurement": "remaining activity at 1 µM", "setting": "[4]", "result": 53, "unit": "%"}, {"measurement": "remaining activity at 1 µM", "setting": "[5]", "result": 96, "unit": "%"}, {"measurement": "remaining activity at 1 µM", "setting": "[6]", "result": 100, "unit": "%"}, {"measurement": "remaining activity at 1 µM", "setting": "[7]", "result": 89, "unit": "%"}, {"measurement": "remaining activity at 1 µM", "setting": "[8]", "result": 69, "unit": "%"}, {"measurement": "remaining activity at 1 µM", "setting": "[9]", "result": 78, "unit": "%"}, {"measurement": "remaining activity at 1 µM", "setting": "[10]", "result": 100, "unit": "%"}, {"measurement": "remaining activity at 1 µM", "setting": "[11]", "result": 71, "unit": "%"}, {"measurement": "remaining activity at 1 µM", "setting": "[12]", "result": 100, "unit": "%"}, {"measurement": "remaining activity at 1 µM", "setting": "[13]", "result": 74, "unit": "%"}, {"measurement": "remaining activity at 1 µM", "setting": "[14]", "result": 91, "unit": "%"}, {"measurement": "remaining activity at 1 µM", "setting": "[15]", "result": 63, "unit": "%"}, {"measurement": "remaining activity at 1 µM", "setting": "[16]", "result": 99, "unit": "%"}, {"measurement": "remaining activity at 1 µM", "setting": "[17]", "result": 97, "unit": "%"}, {"measurement": "remaining activity at 1 µM", "setting": "[18]", "result": 72, "unit": "%"}, {"measurement": "remaining activity at 1 µM", "setting": "[19]", "result": 93, "unit": "%"}, {"measurement": "remaining activity at 1 µM", "setting": "[20]", "result": 92, "unit": "%"}, {"measurement": "remaining activity at 1 µM", "setting": "[21]; CDK4-cyclinD1", "result": 67, "unit": "%"}, {"measurement": "remaining activity at 1 µM", "setting": "[21]; CDK4-cyclinD3", "result": 54, "unit": "%"}, {"measurement": "remaining activity at 1 µM", "setting": "[21]; CDK4", "result": 62, "unit": "%"}, {"measurement": "remaining activity at 1 µM", "setting": "[22]", "result": 87, "unit": "%"}, {"measurement": "remaining activity at 1 µM", "setting": "[23]", "result": 100, "unit": "%"}, {"measurement": "remaining activity at 1 µM", "setting": "[24]", "result": 100, "unit": "%"}, {"measurement": "remaining activity at 1 µM", "setting": "[25]", "result": 100, "unit": "%"}, {"measurement": "remaining activity at 1 µM", "setting": "[26]", "result": 81, "unit": "%"}, {"measurement": "remaining activity at 1 µM", "setting": "[27]", "result": 90, "unit": "%"}, {"measurement": "remaining activity at 1 µM", "setting": "[28]", "result": 45, "unit": "%"}, {"measurement": "remaining activity at 1 µM", "setting": "[29]", "result": 64, "unit": "%"}, {"measurement": "remaining activity at 1 µM", "setting": "[30]", "result": 91, "unit": "%"}, {"measurement": "remaining activity at 1 µM", "setting": "[31]", "result": 33, "unit": "%"}]}]}
